{"source": "patent US9180191B2", "about": "“Treatment of suicidal ideation or behavior using inhibitors of nicotinic acetylcholine receptors” (UNIVERSITY OF SOUTH FLORIDA, priority 2009, dated 2015)", "origin": "cited, not measured here", "key": {"[1]": {"conditions": "for reducing suicidal ideation versus placebo: week 8 (endpoint), p<0.001"}, "[2]": {"conditions": "schizophrenic patients with persistent ongoing symptoms"}, "[3]": {"conditions": "bipolar I or II disorder, acute bipolar depression"}, "[4]": {"conditions": "for teratogen class: FDA Approved Labeling Text"}, "[5]": {"conditions": "for risk of neuroleptic malignant syndrome: patients receiving the drug"}, "[6]": {"conditions": "treatment resistant psychotic bipolar patients, 24 months of observation"}, "[7]": {"conditions": "smoking cessation"}, "[8]": {"test_system": "serotonergic, dopaminergic, and a-adrenergic receptors"}, "[9]": {"test_system": "muscarinic cholinergic receptors"}, "[10]": {"test": "not given", "remark": "listed apart in the source"}, "[11]": {"conditions": "major depressive disorder, inadequate response to prior antidepressant, two 6 week studies"}, "[12]": {"test": "not given", "remark": "listed apart in the source"}, "[13]": {"test": "not given", "remark": "listed apart in the source"}, "[14]": {"test_system": "brain-derived neurotrophic factor (BDNF)", "conditions": "in vivo"}, "[15]": {"test_system": "physiological response to nicotine", "conditions": "chronic administration, rodents"}, "[16]": {"conditions": "clinical trials in schizophrenia"}, "[17]": {"conditions": "bipolar I, manic and mixed symptoms"}}, "note": "Where two headings read alike, the source gives them in different places.", "data": [{"smiles": "OCCOCCN1CCN(C2=Nc3ccccc3Sc3ccccc32)CC1", "note": "[quetiapine]", "values": [{"measurement": "reducing suicidal ideation versus placebo", "setting": "[1]; 300 mg/day", "value": "more effective than placebo"}, {"measurement": "reducing suicidal ideation versus placebo", "setting": "[1]; 600 mg/day", "value": "more effective than placebo"}, {"measurement": "mean percent reduction in suicidal thoughts", "setting": "[1]; 542 outpatients, bipolar I and II depression, placebo approximately 30%", "value": "approximately 60%"}, {"measurement": "reduction in suicidal ideation relative to placebo, item 10 on the MADRS", "setting": "[1]; bipolar I and II depression", "value": "approximately twice"}, {"measurement": "depressive symptoms versus haloperidol", "setting": "[2]", "value": "reduce depressive symptoms more than haloperidol"}, {"measurement": "reducing depressive and anxiety symptoms versus placebo", "setting": "[3]", "value": "superior to placebo"}, {"measurement": "teratogen class", "setting": "[4]", "value": "Class-C teratogen"}, {"measurement": "most commonly observed side effects", "setting": "[5]; [16]", "value": "anxiety, somnolence, EPS, dizziness, constipation, nausea, dyspepsia, rhinitis, rash, and tachycardia"}, {"measurement": "risk of neuroleptic malignant syndrome", "setting": "[5]", "value": "extremely rare"}, {"measurement": "suicidality", "setting": "[6]", "value": "effective in lowering suicidality"}, {"measurement": "efficacy versus placebo in combination with divalproex", "setting": "adolescent patients with acute bipolar I mania", "value": "superior to placebo"}, {"measurement": "efficacy versus placebo in combination with lithium or divalproex", "setting": "hospitalized adult patients with acute mania", "value": "superior to placebo"}, {"measurement": "efficacy versus placebo as monotherapy in acute bipolar mania", "setting": "hospitalized patients with bipolar I disorder, two 12-week trials", "value": "superior to placebo"}]}, {"smiles": "c1cnc2cc3c(cc2n1)[C@@H]1CNC[C@H]3C1", "note": "[varenicline]", "values": [{"measurement": "risk of suicidality relative to other treatments (i.e., buproprion, Zyban)", "setting": "[7]", "value": "increase in the risk of suicidality"}]}, {"smiles": "CN1CC2c3ccccc3Oc3ccc(Cl)cc3C2C1", "note": "(stereo not shown) [asenapine]", "values": [{"measurement": "affinity for serotonergic, dopaminergic, and a-adrenergic receptors", "setting": "[8]", "value": "high affinity"}, {"measurement": "affinity for muscarinic cholinergic receptors", "setting": "[9]", "value": "no appreciable affinity"}, {"measurement": "efficacy versus olanzapine in extended use", "setting": "[10]; [17]", "value": "efficacy comparable to olanzapine"}, {"measurement": "efficacy versus placebo in acute use", "setting": "[10]; [17]", "value": "rapid and significant advantage compared to placebo"}, {"measurement": "efficacy versus placebo as adjunctive therapy", "setting": "[10]; bipolar patients with inadequate improvement on mood stabilizer monotherapy", "value": "superior to placebo"}, {"measurement": "profile and tolerability with long-term use", "setting": "[10]; long-term use", "value": "favorable profile and tolerability"}, {"measurement": "teratogen class", "setting": "[4]", "value": "Class-C teratogen"}, {"measurement": "most commonly observed side effects", "setting": "[5]; [16]", "value": "anxiety, somnolence, EPS, dizziness, constipation, nausea, dyspepsia, rhinitis, rash, and tachycardia"}, {"measurement": "risk of neuroleptic malignant syndrome", "setting": "[5]", "value": "extremely rare"}]}, {"smiles": "O=C1CCc2ccc(OCCCCN3CCN(c4cccc(Cl)c4Cl)CC3)cc2N1", "note": "[aripiprazole]", "values": [{"measurement": "efficacy versus placebo as adjunctive therapy with antidepressants", "setting": "[11]", "value": "superior to placebo"}, {"measurement": "efficacy versus placebo in acute use", "setting": "[12]; bipolar I, manic and mixed symptoms, 3 week trials", "value": "rapid and significant advantage compared to placebo"}, {"measurement": "efficacy versus placebo as adjunctive therapy (with lithium or valproate)", "setting": "[12]; bipolar I, manic or mixed state, inadequate improvement on mood stabilizer monotherapy", "value": "superior to placebo"}, {"measurement": "profile and tolerability with long-term use", "setting": "[12]; long-term use up to 6 months", "value": "favorable profile and tolerability"}, {"measurement": "teratogen class", "setting": "[4]", "value": "Class-C teratogen"}, {"measurement": "most commonly observed side effects", "setting": "[5]; clinical trials in mood disorders (bipolar I disorder and major depressive disorder)", "value": "akathisia, sedation, restlessness, tremor, insomnia, constipation, fatigue, blurred vision and extrapyramidal disorder"}, {"measurement": "risk of neuroleptic malignant syndrome", "setting": "[5]", "value": "extremely rare"}]}, {"smiles": "O=C([O-])[O-].[Li+].[Li+]", "note": "[lithium, Lithium carbonate]", "values": [{"measurement": "fatality rate due to suicide after discontinuing lithium compared to the rate during lithium maintenance", "setting": "[13]; after discontinuing lithium", "value": 12.6, "unit": "times higher"}, {"measurement": "incidence of attempted and completed suicide compared to those who did not receive lithium", "setting": "[13]; long-term lithium treatment", "value": 13, "unit": "fold lower"}, {"measurement": "effect on suicidality", "setting": "[13]; recurrent unipolar major depressive disorder and bipolar disorder", "value": "consistently reduces suicidality"}, {"measurement": "effect on brain BDNF levels", "setting": "[14]", "value": "increase brain BDNF levels"}, {"measurement": "use in pregnancy", "setting": "[4]; pregnancy", "value": "associated with neural tube defects"}, {"measurement": "physiological response to nicotine", "setting": "[15]", "value": "decreases their physiological response to nicotine"}, {"measurement": "most commonly observed side effects", "setting": "[5]; lithium, population not given", "value": "tremor, diarrhea, polydipsia, polyuria and nausea"}]}]}
